This is an account of results in patent US20020026051A1, “Dithiepino [6,5-b]pyridines, and related compositions and methods” (priority 1999, published 2002).

In one assay the target is T1, calcium channel (Oryctolagus cuniculus, UniProt P15381).
T1 construct: from tissue; host or cells: rabbit heart membrane preparation
Nature of the assay: Assay for Inhibition of Nitrendipine Binding (3H-nitrendipine, heart membranes). The conditions noted are these: 3H-nitrendipine displacement, rabbit heart membranes. On the procedure:
Female, New Zealand white rabbits (1-2 kg) are sacrificed by cervical dislocation, and the heart is immediately removed, cleaned and chopped into small pieces. The tissue is homogenized in 5× times volume of 0.05M Hepes buffer, pH 7.4. The homogenate is centrifuged at 4000 g for 10 minutes, and the supernatant is re-centrifuged at 42,000×g for 90 minutes. The resulting membrane pellet is resuspended (0.7 ml/g weight) in 0.05M Hepes, pH 7.4 and stored at […] until used. Each tube of the binding assay contains ^3H-nitrendipine (0.05-0.50 nM), buffer, membranes (0.10 ml), and test compound in a total volume of 1.0 ml. After 90 minutes at 4° C., the bound nitrendipine is separated from the unbound by filtration on Whatman GF/C filters. After rinsing, the filters are dried and counted in a liquid scintillation counter.
Non-specific binding of ^3H-nitrendipine (that amount bound in the presence of excess unlabelled nitrendipine) is subtracted from the total bound to obtain specifically bound radiolabeled nitrendipine. The amount of specifically bound nitrendipine in the presence of a test compound is compared to that amount bound in the absence of a compound. A percent displacement (or inhibition) can then be calculated.

A further assay relates to trachealis muscle tissue. Nature of the assay: Test for Inhibition of Calcium-Dependent Smooth Muscle Contraction (trachea). The conditions noted are these: Canis lupus familiaris; dog tracheal rings, 50 mM KCl contraction. It is filed as cell-based. The procedure:
The trachea and the aorta from dogs sacrificed by excess KCl injection are stored overnight at 4° C. in oxygenated Krebs-Henseleit buffer. Tracheal rings, one cartilage segment wide (5-10 mm), are cut starting from the bronchial end. Rings of aorta tissue of the same width are also prepared. After cutting the cartilage, the trachealis muscle tissue and the aorta tissue are suspended in oxygenated Krebs-Henseleit buffer at 37° C. in a 25 ml tissue bath. After a 60-minute equilibration period, the tissues are challenged with 10 μM carbachol. After 5 minutes, the tissues are rinsed and allowed to rest 50 minutes. The tissues are then challenged with 50 mM KCl and, after 30 minutes, the contractions are quantitated. The tissues are then rinsed and re-equilibrated for 50 minutes. Test compounds are then added for 10 minutes, and the tissue is rechallenged with 50 mM KCl. After 30 minutes, the contraction is recorded. A percent inhibition of smooth muscle contraction can then be calculated.

A word on the IC50: it is the concentration that gives 50% inhibition.

T1 sequence (P15381 whole entry, other chains not shown): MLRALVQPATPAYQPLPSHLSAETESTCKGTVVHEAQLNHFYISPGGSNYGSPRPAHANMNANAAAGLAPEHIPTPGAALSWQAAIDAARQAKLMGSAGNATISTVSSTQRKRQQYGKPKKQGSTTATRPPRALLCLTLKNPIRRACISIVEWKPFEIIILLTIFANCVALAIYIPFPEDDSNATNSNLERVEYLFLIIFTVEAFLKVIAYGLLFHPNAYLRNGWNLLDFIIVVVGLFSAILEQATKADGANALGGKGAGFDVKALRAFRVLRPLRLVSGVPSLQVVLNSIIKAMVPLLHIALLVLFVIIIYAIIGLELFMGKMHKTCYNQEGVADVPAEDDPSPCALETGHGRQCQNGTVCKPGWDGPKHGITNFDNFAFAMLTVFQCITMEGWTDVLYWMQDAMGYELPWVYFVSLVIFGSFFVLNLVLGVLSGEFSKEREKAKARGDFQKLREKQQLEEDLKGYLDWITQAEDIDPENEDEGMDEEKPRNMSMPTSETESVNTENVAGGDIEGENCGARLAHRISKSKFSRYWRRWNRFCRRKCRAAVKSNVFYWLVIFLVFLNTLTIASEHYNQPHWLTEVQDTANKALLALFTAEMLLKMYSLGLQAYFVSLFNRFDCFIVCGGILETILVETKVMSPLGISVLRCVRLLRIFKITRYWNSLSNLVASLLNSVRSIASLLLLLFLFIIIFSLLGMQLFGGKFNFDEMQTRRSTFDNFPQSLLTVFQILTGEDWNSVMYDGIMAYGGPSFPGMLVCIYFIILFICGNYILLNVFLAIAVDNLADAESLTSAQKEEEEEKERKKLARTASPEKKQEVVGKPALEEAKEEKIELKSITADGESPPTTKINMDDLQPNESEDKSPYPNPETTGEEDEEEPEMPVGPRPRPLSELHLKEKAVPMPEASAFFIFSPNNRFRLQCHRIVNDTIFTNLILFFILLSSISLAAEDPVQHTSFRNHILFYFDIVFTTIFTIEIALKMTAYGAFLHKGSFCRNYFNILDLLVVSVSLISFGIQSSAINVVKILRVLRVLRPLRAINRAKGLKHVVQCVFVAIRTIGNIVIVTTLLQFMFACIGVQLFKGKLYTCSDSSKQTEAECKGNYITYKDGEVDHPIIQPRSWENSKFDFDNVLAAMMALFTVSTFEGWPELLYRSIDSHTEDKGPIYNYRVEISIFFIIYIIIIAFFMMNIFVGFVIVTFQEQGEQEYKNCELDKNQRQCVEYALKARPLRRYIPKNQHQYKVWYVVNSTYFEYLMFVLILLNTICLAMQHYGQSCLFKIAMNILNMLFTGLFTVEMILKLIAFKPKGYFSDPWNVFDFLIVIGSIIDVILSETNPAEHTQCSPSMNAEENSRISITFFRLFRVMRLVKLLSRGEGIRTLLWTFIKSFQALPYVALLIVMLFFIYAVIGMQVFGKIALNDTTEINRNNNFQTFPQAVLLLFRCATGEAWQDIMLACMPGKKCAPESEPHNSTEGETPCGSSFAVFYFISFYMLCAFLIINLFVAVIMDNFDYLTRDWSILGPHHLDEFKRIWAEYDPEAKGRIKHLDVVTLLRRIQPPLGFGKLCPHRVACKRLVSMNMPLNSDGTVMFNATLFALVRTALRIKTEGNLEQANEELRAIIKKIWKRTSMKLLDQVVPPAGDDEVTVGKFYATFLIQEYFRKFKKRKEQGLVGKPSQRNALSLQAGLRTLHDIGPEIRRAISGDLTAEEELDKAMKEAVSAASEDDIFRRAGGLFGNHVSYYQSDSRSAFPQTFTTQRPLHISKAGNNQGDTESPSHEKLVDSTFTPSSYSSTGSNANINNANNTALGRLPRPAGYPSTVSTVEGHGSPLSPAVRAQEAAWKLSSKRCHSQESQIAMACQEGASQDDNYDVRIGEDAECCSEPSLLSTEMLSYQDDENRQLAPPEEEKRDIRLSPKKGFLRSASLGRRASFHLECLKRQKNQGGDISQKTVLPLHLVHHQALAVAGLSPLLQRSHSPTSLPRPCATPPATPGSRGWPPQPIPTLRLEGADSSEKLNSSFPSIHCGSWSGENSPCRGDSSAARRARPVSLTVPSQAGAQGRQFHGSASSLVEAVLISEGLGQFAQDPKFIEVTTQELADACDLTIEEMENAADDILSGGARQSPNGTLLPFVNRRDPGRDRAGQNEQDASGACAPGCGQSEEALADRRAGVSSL
T1 sequence (P13806 27-960 partner limits assumed, other chains not shown): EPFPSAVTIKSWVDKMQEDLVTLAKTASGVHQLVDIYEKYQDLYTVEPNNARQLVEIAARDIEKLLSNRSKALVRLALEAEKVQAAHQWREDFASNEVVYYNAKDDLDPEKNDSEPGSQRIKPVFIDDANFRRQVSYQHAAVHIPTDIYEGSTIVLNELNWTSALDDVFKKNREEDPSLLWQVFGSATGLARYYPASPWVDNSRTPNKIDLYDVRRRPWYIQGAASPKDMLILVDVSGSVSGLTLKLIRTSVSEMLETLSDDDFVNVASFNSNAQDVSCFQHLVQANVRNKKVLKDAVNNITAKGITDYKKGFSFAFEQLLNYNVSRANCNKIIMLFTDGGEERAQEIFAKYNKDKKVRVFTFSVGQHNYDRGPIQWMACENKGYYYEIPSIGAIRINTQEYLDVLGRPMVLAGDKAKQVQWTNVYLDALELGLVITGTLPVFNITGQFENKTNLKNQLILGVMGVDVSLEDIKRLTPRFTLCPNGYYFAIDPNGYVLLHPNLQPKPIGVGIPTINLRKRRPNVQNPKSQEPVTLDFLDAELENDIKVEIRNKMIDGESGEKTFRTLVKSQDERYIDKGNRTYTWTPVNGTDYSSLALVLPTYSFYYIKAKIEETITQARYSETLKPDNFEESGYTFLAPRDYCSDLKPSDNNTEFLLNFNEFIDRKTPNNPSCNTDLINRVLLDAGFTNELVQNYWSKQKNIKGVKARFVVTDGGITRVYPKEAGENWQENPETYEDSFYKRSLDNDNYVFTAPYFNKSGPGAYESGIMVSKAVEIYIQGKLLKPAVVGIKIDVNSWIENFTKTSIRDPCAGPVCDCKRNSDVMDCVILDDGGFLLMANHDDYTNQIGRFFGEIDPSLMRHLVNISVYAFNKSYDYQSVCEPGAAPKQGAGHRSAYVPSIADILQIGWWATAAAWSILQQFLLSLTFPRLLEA
T1 sequence (P13806 961-1106 partner limits assumed, other chains not shown): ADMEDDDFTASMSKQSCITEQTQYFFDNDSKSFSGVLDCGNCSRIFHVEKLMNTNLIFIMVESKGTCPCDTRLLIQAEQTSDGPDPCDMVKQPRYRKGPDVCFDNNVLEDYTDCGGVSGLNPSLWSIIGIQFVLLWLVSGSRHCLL

Regarding `CC1=C(C(=O)OCCN(C)Cc2ccccc2)[C@@H](c2c(F)cccc2Cl)C2=C(CS(=O)(=O)CCS2(=O)=O)N1` (single isomer, unassigned) [Compound 2, 5H-1,4-Dithiepino[6,5-b]pyridine-8-carboxylic acid, 9-(2-chloro-6-fluorophenyl)-2,3,6,9-tetrahydro-7-methyl-2-[methyl(phenylmethyl)amino]ethyl ester 1,1,4,4-tetraoxide], the IC50 on calcium channel (Tables 1-5) amounted to 43 nM; with trachealis muscle tissue, 660 nM.
On the same counts, the results for `CC1=C(C(=O)OCCN(C)Cc2ccccc2)C(c2c(F)c(F)c(F)c(F)c2F)C2=C(CS(=O)(=O)CCCS2(=O)=O)N1` (stereo not drawn) [Compound 27, 2H,6H-1,5-Dithiocino[3,2-b]pyridine-9-carboxylic acid, 3,4,7,10-tetrahydro-8-methyl-10-(pentafluorophenyl)-2-[methyl(phenylmethyl)amino]ethyl ester 1,1,5,5-tetraoxide] are 49 nM and 6200 nM.
Take `CC1=C(C(=O)OCCN(C)Cc2ccccc2)C(c2c(F)cccc2Cl)C2=C(CS(=O)(=O)CCS2(=O)=O)N1` (stereo not drawn) [Compound 1, 5H-1,4-Dithiepino[6,5-b]pyridine-8-carboxylic acid, 9-(2-chloro-6-fluorophenyl)-2,3,6,9-tetrahydro-7-methyl-2-[methyl(phenylmethyl)amino]ethyl ester 1,1,4,4-tetraoxide]: the figures for the concentration for half-maximal inhibition (IC50) on calcium channel (Tables 1-5) and in the assay on trachealis muscle tissue were 74 nM and 650 nM, respectively.
As to `CC1=C(C(=O)OCCN(C)Cc2ccccc2)C(c2ccccc2Cl)C2=C(CS(=O)(=O)CCS2(=O)=O)N1` (stereo not drawn) [Compound 6, 5H-1,4-Dithiepino[6,5-b]pyridine-8-carboxylic acid, 9-(2-chlorophenyl)-2,3,6,9-tetrahydro-7-methyl-2-[methyl(phenylmethyl)amino]ethyl ester 1,1,4,4-tetraoxide], the IC50 on calcium channel (Tables 1-5) stood at 45 nM.
Still for that read-out and setting: the same measure for `COC(=O)C1=C(C)NC2=C(C1c1cccc(C(F)(F)F)c1F)S(=O)(=O)CC(CO)S(=O)(=O)C2` (stereo not drawn) [Compound 22, 5H-1,4-Dithiepino[6,5-b]pyridine-8-carboxylic acid, 9-[2-fluoro-3-(trifluoromethyl)phenyl]-2,3,6,9-tetrahydro-3-(hydroxymethyl)-7-methyl-methyl ester 1,1,4,4-tetraoxide]: 193 nM.
The same measure, in the same setting: the value for `COC(=O)C1=C(C)NC2=C(C1c1ccccc1Cl)S(=O)(=O)CCS(=O)(=O)C2` (stereo not drawn) [Compound 15, 5H-1,4-Dithiepino[6,5-b]pyridine-8-carboxylic acid, 9-(2-chlorophenyl)-2,3,6,9-tetrahydro-7-methyl-methyl ester 1,1,4,4-tetraoxide] was 61 nM.
With `CC1=C(C(=O)OCCOC(=O)C2CCCCC2)C(c2c(F)cccc2Cl)C2=C(CS(=O)(=O)CCS2(=O)=O)N1` (stereo not drawn) [Compound 55], the IC50 at calcium channel (Tables 6-7) was 100 nM.
For `CC1=C(C(=O)OCc2oc(=O)oc2C)C(c2c(F)cccc2Cl)C2=C(CS(=O)(=O)CCS2(=O)=O)N1` (stereo not drawn) [Compound 73], on calcium channel (Tables 6-7), the half-inhibitory concentration (IC50) was 417 nM.
Take `CC1=C(C(=O)OCCOC(=O)C(C)C)C(c2c(F)cccc2Cl)C2=C(CS(=O)(=O)CCS2(=O)=O)N1` (stereo not drawn) [Compound 57]: on calcium channel (Tables 6-7), the IC50 was found to be 143 nM.
Consider `CC1=C(C(=O)OCCN(C)Cc2ccccc2)C(c2cccc(C(F)(F)F)c2F)C2=C(CS(=O)(=O)C(CO)CS2(=O)=O)N1` (stereo not drawn) [Compound 23, 5H-1,4-Dithiepino[6,5-b]pyridine-8-carboxylic acid, 9-[2-fluoro-3-(trifluoromethyl)phenyl]-2,3,6,9-tetrahydro-3-(hydroxymethyl)-7-methyl-2-[methyl(phenylmethyl)amino]ethyl ester 1,1,4,4-tetraoxide], for which the half-maximal inhibitory concentration (IC50) on calcium channel (Tables 1-5) was 215 nM.
Still for that read-out and setting: the same measure for `COC(=O)C1=C(C)NC2=C(C1c1c(F)c(F)c(F)c(F)c1F)S(=O)(=O)CCS(=O)(=O)C2` (stereo not drawn) [Compound 13, 5H-1,4-Dithiepino[6,5-b]pyridine-8-carboxylic acid, 2,3,6,9-tetrahydro-7-methyl-9-(pentafluorophenyl)-methyl ester 1,1,4,4-tetraoxide]: 27 nM; for `CC1=C(C(=O)OCCN(C)Cc2ccccc2)C(c2cccc([N+](=O)[O-])c2)C2=C(CS(=O)(=O)C(CO)CS2(=O)=O)N1` (stereo not drawn) [Compound 24, 5H-1,4-Dithiepino[6,5-b]pyridine-8-carboxylic acid, 2,3,6,9-tetrahydro-3-(hydroxymethyl)-7-methyl-9-(3-nitrophenyl)-2-[methyl(phenylmethyl)amino]ethyl ester 1,1,4,4-tetraoxide]: 337 nM.
